Measured values reported in paper PMC8449414, “Rational design of ASCT2 inhibitors using an integrated experimental-computational approach” (Proceedings of the National Academy of Sciences of the …, 2021).
“Also recorded” adds a separate entry of the source.

Assays:
rEAAT1 = molecular target: T1, rEAAT1 (Rattus norvegicus, UniProt P24942); experiment: Electrophysiology: SLC1 specificity, anion current in transfected HEK293 cells; type: cell-based; conditions: 0 mV, 10 mM glutamate and 130 mM NaSCN internal, No current = no outward current up to highest concentration tested (§ 20-50, || 100-400, # 1500-2500 µM); for Ki: read-out: Binding affinity Ki
T1 construct: expressed in transfected cells; host or cells: HEK293 (ATCC CRL-11268), transient transfection
T1 sequence (P24942 1-543): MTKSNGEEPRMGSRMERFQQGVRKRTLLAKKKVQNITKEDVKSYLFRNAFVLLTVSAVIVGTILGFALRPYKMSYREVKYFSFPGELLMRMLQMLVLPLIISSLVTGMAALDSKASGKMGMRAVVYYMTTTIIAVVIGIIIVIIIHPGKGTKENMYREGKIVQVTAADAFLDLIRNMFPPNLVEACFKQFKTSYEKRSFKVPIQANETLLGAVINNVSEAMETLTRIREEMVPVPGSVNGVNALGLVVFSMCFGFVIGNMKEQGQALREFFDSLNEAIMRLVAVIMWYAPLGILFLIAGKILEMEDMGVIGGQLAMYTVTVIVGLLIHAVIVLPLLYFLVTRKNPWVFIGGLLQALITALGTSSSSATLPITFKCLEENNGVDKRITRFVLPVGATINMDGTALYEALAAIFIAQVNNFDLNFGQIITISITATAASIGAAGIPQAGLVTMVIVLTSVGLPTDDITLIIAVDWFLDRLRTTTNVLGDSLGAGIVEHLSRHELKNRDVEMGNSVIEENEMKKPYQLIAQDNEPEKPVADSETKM
Description: (§1) We also tested the specificity of Lc-BPE for ASCT2 over other SLC1 family members (ASCT1, EAAT1-3, and EAAT5).
(§2) Fig. S3. SLC-1 specificity of Lc-BPE. (A) Electrophysiological current responses to the application of 100 µM glutamate (red trace) or varying concentrations of Lc-BPE (black, blue and red traces) to rEAAT1-expressing cells HEK293 cells. (B-C) Dose response curves obtained from currents recorded a fter application of Lc-BPE extracellularly to cells transiently expressing hASCT2, rASCT2, hASCT1 (panel B) and rEAAT1, rEAAT2, rEAAT3 and hEAAT5 (panel C) respectively. For hASCT2, rASCT2 and hASCT1, intracellular pipette solution contained 10 mM alanine and 130 mM NaSCN. For rEAAT1, rEAAT2, rEAAT3 and hEAAT5, intracellular solution contained 10 mM glutamate and 130 mM NaSCN. Extracellular solution was the same for all the experiments (140 mM NaCl). The voltage was 0 mV. […]
(§3) Cell culture and transfection
(§4) Human embryonic kidney 293 (HEK293, ATCC CRL -11268) cells were cultured in DMEM media supplemented with 10% (v/v) fetal bovine serum (FBS), 2 mM glutamine, 1% penicillin streptomycin solution, 1 mM sodium pyruvate and non -essential amino acids. Cells were maintained at 370C in a fully humidified atmosphere containing 5% CO2. rASCT2, hASCT2, hASCT1, EAAT1, EAAT2, EAAT3, EAAT5 and YFP complementary DNAs were each used to transiently transfect HEK293 using POLYPLUS Jet-prime transfection reagent. Cells were analyzed using electrophysiological techniques 24-40 hours after transfection.
(§5) Electrophysiological techniques
(§6) Electrophysiological experiments were performed as described previously 1,2. Stock solutions of inhibitor was prepared in dimethyl sulfoxide (DMSO) up to 100 mM.
(§7) Dilutions to working concentrations were made using external buffer. The highest […]
(§8) cells. For rASCT2, hASCT2 and hASCT1, external buffer contained 140 mM NaCl, 2 mM MgCl2, 2 mM CaCl2, and 10 mM HEPES, pH 7.40 while internal pipette solution comprised of 130 mM NaSCN, 2 mM MgCl2, 10 mM EGTA, 10 mM HEPES and 10mM alanine, pH 7.40. For specificity experiments with EAAT1, EAAT2, EAAC1 and EAAT5, internal solution contained 10 mM glutamate instead of alanine. Compounds were applied to HEK293 cells expressing DNA of interest suspended from a current recording electrode in whole cell configuration44 through a rapid solution exchange device described previously45. Cells are immersed in external buffer bath used to dissolve the inhibitors. The open pipette resistance was between 3 and 6 MΩ. Series resistance was not compensated in these experiments due to relatively small currents. Current s traces were recorded using an Adams and List EPC7 amplifier and digitized using a Molecular Devices Digidata A/D converter.
(§9) Data analysis was performed as described previously 46. Linear and nonlinear curve fitting of the experimental data were analyzed using MicroCal Origin software. Linear plots were fitted using the general equation (y = a + bx) obtaining adjusted R 2 and Pearson’s r values. Nonlinear dose–response relationships were fitted with a Michaelis – Menten-like equation to obtain apparent Ki values in the absence of substrate. For competition studies, equation I = I1 + I2 [Inh]/(Ki + [Inh]) was used for fitting, where I1 is the alanine induced current without the inhibitor, and I2 is the maximum current in the presence of saturating inhibitor concentration, [Inh]max 1,2. At least five experiments were performed for each compound. Unless stated otherwise, the error bars in all our graphs represent mean ± SD .
(§10) ASCT2 expression and purification
(§11) Human ASCT2 (hASCT2) was produced in Pichia pastoris X-33 strain (Invitrogen) in fermentor26 and purified using DDM and CHS (Anatrace) and 1 mM L-glutamine (Merck) to maintain protein stability 27. Membranes representing ~1.5 g cells were solubilized in buffer A (25 mM Tris-HCl, pH 7.4, 300 mM NaCl, 10% (vol/vol) glycerol, 1 mM L - glutamine, 1% DDM and 0.1% CHS) for 1 h at 4 °C; ultracentrifuged (30 min, 442,907 × […]

rEAAT2 = molecular target: T2, rEAAT2 (Rattus norvegicus, UniProt P31596); experiment: as above; type: cell-based; conditions: 0 mV, 10 mM glutamate and 130 mM NaSCN internal, No current = no outward current up to highest concentration tested (§ 20-50, || 100-400, # 1500-2500 µM); for Ki: read-out: Binding affinity Ki
T2 construct: expressed in transfected cells; host or cells: HEK293 (ATCC CRL-11268), transient transfection
T2 sequence (P31596 whole entry): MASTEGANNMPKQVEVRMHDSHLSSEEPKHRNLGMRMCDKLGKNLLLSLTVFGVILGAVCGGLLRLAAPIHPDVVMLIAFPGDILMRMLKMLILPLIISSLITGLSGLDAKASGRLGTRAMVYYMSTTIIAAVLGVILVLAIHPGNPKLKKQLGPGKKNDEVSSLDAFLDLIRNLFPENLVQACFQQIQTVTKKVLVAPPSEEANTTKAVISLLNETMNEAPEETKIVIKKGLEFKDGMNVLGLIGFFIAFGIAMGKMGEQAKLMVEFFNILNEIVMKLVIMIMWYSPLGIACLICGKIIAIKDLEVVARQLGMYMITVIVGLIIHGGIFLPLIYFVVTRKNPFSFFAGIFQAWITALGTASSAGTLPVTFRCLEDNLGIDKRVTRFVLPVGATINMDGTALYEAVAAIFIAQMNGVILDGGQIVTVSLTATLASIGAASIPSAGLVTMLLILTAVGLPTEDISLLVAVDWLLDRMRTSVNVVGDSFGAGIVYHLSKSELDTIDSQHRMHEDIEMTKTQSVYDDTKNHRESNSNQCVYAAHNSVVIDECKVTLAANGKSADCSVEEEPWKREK
Description: as §1, §2, §3, §4, §5, §6, §7, §8, §9, §10, §11

Binding affinity Ki (rEAAT1)	Binding affinity Ki (rEAAT2)	Ki (rEAAT1) [µM]	Ki (rEAAT2) [µM]	SMILES
		1 ± 0.25	0.97 ± 0.1	O=C(O[C@@H]1CN[C@H](C(=O)O)C1)c1ccc(-c2ccc(C(F)(F)F)cc2)cc1 [ERA-5]
		1 ± 0.11	1.3 ± 0.13	Cc1ccccc1-c1ccc(C(=O)O[C@@H]2CN[C@H](C(=O)O)C2)cc1 [ERA-6]
		8.18 ± 1.77	7.72 ± 1.89	O=C(O[C@@H]1CN[C@H](C(=O)O)C1)c1ccc(Oc2ccccc2)cc1 [ERA-16]
No current	No current			O=C(O[C@@H]1CN[C@H](C(=O)O)C1)c1ccc(OCc2ccccc2)cc1 [ERA-31]
No current	No current			O=C(O[C@H]1CN[C@H](C(=O)O)C1)c1ccc(C(=O)c2ccccc2)cc1 [ERA-35]

The next lines start with the compound.

SMILES	Binding affinity Ki (rEAAT1)	Binding affinity Ki (rEAAT2)	Ki (rEAAT1) [µM]	Ki (rEAAT2) [µM]
O=C(O[C@@H]1CN[C@H](C(=O)O)C1)c1ccccc1-c1ccccc1 [ERA-3]	No current	No current		
O=C(O[C@@H]1CN[C@H](C(=O)O)C1)c1ccc(-c2ccc(F)cc2)cc1 [ERA-4]			0.4 ± 0.07	1.29 ± 0.31
O=C(O[C@@H]1CN[C@H](C(=O)O)C1)c1ccc(C(O)c2ccccc2)cc1 (some centres unmarked) [ERA-9]		No current; also recorded: No inhibitory activity was detected	39.5	
O=C(Nc1ccc(C(=O)O[C@@H]2CN[C@H](C(=O)O)C2)cc1)c1ccc(C(F)(F)F)cc1 [ERA-11]		No current	9.6 ± 7.5	
N[C@@H](COC(=O)c1ccc(NC(=O)c2ccccc2)cc1)C(=O)O [ERA-21]			9.57 ± 1.61	11 ± 1.25
N[C@@H](COC(=O)c1ccccc1)C(=O)O [ERA-25]			195 ± 48.4	164 ± 47
N[C@@H](COC(=O)c1cccnc1)C(=O)O [ERA-28]	No current	No current		
O=C(O[C@@H]1CN[C@H](C(=O)O)C1)C(c1ccccc1)c1ccccc1 [ERA-29]	No current	No current		
